Test results as given in paper PMC11472313, “Development of Fragment-Based Inhibitors of the Bacterial Deacetylase LpxC with Low Nanomolar Activity” (Journal of Medicinal Chemistry, 2024).
≈ marks a conversion by molar mass, not a printed value.

Key:
E. coli LpxC C63A = target: T1, E. coli LpxC C63A (Escherichia coli, UniProt P0A725, C63A); assay: fluorescence-based E. coli LpxC C63A enzyme inhibition assay; format: biochemical; conditions: Ki E. coli LpxC C63A, from IC50 via Cheng–Prusoff
T1 construct: made in house; host or cells: E. coli BL21(DE3)
T1 sequence (P0A725 whole entry C63A): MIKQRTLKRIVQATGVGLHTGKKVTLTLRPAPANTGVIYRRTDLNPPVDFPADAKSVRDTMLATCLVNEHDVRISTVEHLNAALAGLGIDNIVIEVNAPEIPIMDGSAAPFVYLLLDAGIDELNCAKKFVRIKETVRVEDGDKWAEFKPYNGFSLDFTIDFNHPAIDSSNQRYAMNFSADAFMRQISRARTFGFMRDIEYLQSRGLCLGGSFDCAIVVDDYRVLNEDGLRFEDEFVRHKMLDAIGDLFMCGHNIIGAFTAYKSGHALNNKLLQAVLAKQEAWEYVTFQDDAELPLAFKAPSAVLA
Experimental: In order to determine the inhibitory activities of the compounds of interest toward E. coli LpxC, a fluorescence-based enzyme assay was deployed, in which the formed deacetylated natural product UDP-3-O-[(R)-3-hydroxymyristoyl]glucosamine (2) is transformed into a fluorescent isoindole with o-phthaldialdehyde and 2-mercaptoethanol.[48],[49] […] The KM of E. coli LpxC C63A was determined experimentally using a mass spectrometry-based LpxC assay (Figure S8, Supporting Information, vide infra).
A fluorescence-based microplate assay for LpxC activity was performed as described by Clements et al.[48] The wells in a black, nonbinding, 96-well fluorescence microplate (Greiner Bio One, Frickenhausen) were filled with 93 μL of 26.9 μM UDP-3-O-[(R)-3-hydroxymyristoyl]-N-acetylglucosamine in assay buffer [40 mM sodium morpholinoethanesulfonic acid (pH 6.0), 80 μM dithiothreitol, 0.02% Brij 35]. In order to assay the inhibitors at final concentrations from 20 nM up to 20 μM, 2 μL of a respective dilution of the compounds in DMSO were added. The addition of 5 μL of a solution of purified LpxC (10 μg mL^–1) in assay buffer led to final concentrations of 25 μM UDP-3-O-[(R)-3-hydroxymyristoyl]-N-acetylglucosamine, 15 nM E. coli LpxC C63A, 2% DMSO, and from 20 nM up to 20 μM inhibitor. The microplate was incubated for 30 min at 37 °C in a plate shaker. Then, the biochemical reaction was stopped by adding 40 μL of 0.625 M sodium hydroxide. The reaction mixture was further incubated for 10 min and neutralized by adding 40 μL of 0.625 M acetic acid. The deacetylated product UDP-3-O-[(R)-3-hydroxymyristoyl]glucosamine was converted into a fluorescing isoindole by adding 120 μL of an o-phthaldialdehyde-2-mercaptoethanol solution, which was prepared by dissolving 10 mg of o-phthaldialdehyde in 1 mL of methanol, diluting the mixture with 24 mL of a sodium borate buffer (0.1 M), and finally adding 2.5 μL of 2-mercaptoethanol.[49] Fluorescence was measured with a TriStar^2 S LB 942 plate reader (Berthold, Bad Wildbad) at 340 nm excitation and 460 nm emission wavelengths. Each assay was performed at least three times on separate days. The IC50 values were calculated via Probit-log concentration graphs with the aid of the software Origin and were subsequently converted into Ki values using the Cheng–Prusoff equation.[75],[76]

E. coli BL21(DE3) [1] = assay: MIC, broth microdilution; format: cell-based; conditions: Escherichia coli, 20 h, 37 °C, LB
Experimental: (§1) Besides measuring the inhibitory activities toward E. coli LpxC C63A, the antibacterial activities of the synthesized hydroxamic acids were evaluated by determining their minimal inhibitory concentrations (MIC) in broth dilution tests as well as by performing disc diffusion assays (Table 1).
(§2) The MIC values of the compounds were determined by means of the microdilution method using 96-well plates.
(§3) The overnight suspension was diluted 1:1000 in fresh LB. 10 μL of a 2-fold dilution series of the compounds in DMSO and 90 μL of LB were dispensed to each well of a 96-well plate. Then, 100 μL of the inoculated medium was added, resulting in 5 × 10^5 cfu mL^–1, 5% DMSO, and a final concentration range of the test compounds between 64 and 0.016 μg mL^–1. The plates were incubated for 20 h at 37 °C. The MIC was defined as the lowest concentration of the compounds that prevented visible growth after incubation. Each assay was performed at least three times on separate days.

E. coli D22 [2] = assay: MIC, broth microdilution; format: cell-based; conditions: Escherichia coli, 20 h, 37 °C, LB
Experimental: as §1, §2, §3

E. coli BL21(DE3) [3] = assay: disc diffusion assay; format: cell-based; conditions: 0.15 μmol per 6 mm disc
Experimental: as §1
(§4) The disc diffusion assays against E. coli BL21(DE3) and the defective strain E. coli D22 were performed as follows: liquid cultures of the bacteria were grown overnight in lysogeny broth (LB)[73] at 37 °C and 200 rpm. 150 μL of an overnight cell suspension was spread evenly onto LB agar plates. 0.15 μmol of each compound (dissolved in 10 or 15 μL DMSO) were applied onto circular filter paper (Ø = 6 mm, Cytiva). Pure DMSO, serving as a negative control, and CHIR-090, serving as a positive control, were also spotted. The agar plates were incubated overnight at 37 °C, and the diameter of the zone of growth inhibition was measured for each compound. Each assay was performed at least three times on separate days.

E. coli D22 [4] = assay: disc diffusion assay; format: cell-based; conditions: 0.15 μmol per 6 mm disc
Experimental: as §1, §4

LasB = target: T2, LasB (Pseudomonas aeruginosa, UniProt Q02RJ6); assay: FRET-based LasB in vitro inhibition assay; format: biochemical, P. aeruginosa PA14
T2 construct: The elastase LasB of P. aeruginosa is a secreted metalloprotease; endogenous in cells; host or cells: P. aeruginosa PA14 culture supernatant
T2 sequence (Q02RJ6 198-498): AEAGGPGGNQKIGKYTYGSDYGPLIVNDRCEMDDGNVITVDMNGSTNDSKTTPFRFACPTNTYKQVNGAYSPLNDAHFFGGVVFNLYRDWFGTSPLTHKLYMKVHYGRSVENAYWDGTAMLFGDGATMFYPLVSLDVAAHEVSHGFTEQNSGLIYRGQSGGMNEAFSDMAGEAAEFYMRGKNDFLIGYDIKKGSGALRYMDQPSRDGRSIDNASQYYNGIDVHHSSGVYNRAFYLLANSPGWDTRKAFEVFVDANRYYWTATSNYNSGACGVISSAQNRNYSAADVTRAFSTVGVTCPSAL
Experimental: Purification of LasB from P. aeruginosa PA14 supernatant and the subsequent performance of the FRET-based in vitro inhibition assay was performed as described previously.[66] The TACE (ADAM-17) inhibitor screening kit was purchased from Sigma-Aldrich (Saint Louis, MO). MMPs 1–3 along with the SensoLyte 520 Generic MMP Activity Kit Fluorimetric were purchased from AnaSpec (Fremont, CA, USA). The assays were performed according to the guidelines of the respective manufacturer. Fluorescence signals were measured using a CLARIOstar plate reader (BMG Labtech, Ortenberg, Germany).

LpxC–9 complex = assay: NMR-ILOE (interligand NOESY) of fragment hits with LpxC and 9; conditions: fragment hits binding the LpxC–9 complex by STD and WaterLogsy; 6 μM LpxC
Experimental: In order to find fragments specifically addressing the UDP-binding pocket, which can be linked to the LpxC inhibitors, a fragment screen was performed against LpxC bound to 9. First, 650 fragments in cocktails of five were tested for binding to the LpxC–9 complex using STD-NMR and WaterLogsy experiments. Then, fragment hits identified as potential binders were tested one by one against the LpxC–9 complex by STD-NMR and WaterLogsy experiments performed under identical experimental conditions. A total of 97 fragment hits were identified as binders, leading to a hit rate of 15%.
Then, NMR-ILOE experiments were performed with selected fragment hits in the presence of LpxC and the unsubstituted hydroxamic acid 9. This allowed the identification of fragments that bind in the enzyme’s UDP-binding pocket near the methylene group in the α-position of the inhibitor’s hydroxamate moiety. Weak interligand NOESY peaks were observed between inhibitor 9 and nine fragments. By contrast, no interligand NOESY peaks were observed between compound 9 and the other ten fragments. […] Unexpectedly, we also observed interligand NOESY between the fragment protons and protons of the morpholino moiety.
Standard 1D and STD NMR spectra were acquired at 20 °C with a Bruker 600 MHz NMR spectrometer equipped with a 5 mm cryoprobe. Parameters for the STD experiments (saturation frequency and saturation time) were identical for all samples. […] STD saturation time was 2 s. WaterLOGSY mixing time was 1.5 s. Two NOESY experiments were recorded with mixing times of 0.6 and 0.3 s. STD and WaterLOGSY spectra were recorded with the same NMR tubes containing 3 μM LpxC, compound 9 at 500 μM, and fragments at 500 μM. For NOESY experiments, NMR tubes contained 6 μM LpxC.
Temperature was set to 293 K for all NMR experiments.

| SMILES | Ki (E. coli LpxC C63A) | MIC (E. coli BL21(DE3) [1]) | MIC (E. coli D22 [2]) | Inhibition zone E. coli BL21(DE3) (E. coli BL21(DE3) [3]) | Inhibition zone E. coli D22 (E. coli D22 [4]) | LasB Inhibition at 20 μM (LasB; 20 μM) | inhibition at 20 µM (LasB; read-out: LasB Inhibition at 20 μM) | Inter-Ligand NOESY peaks between the fragment and 9 (LpxC–9 complex) |
| --- | --- | --- | --- | --- | --- | --- | --- | --- |
| O=C(NO)[C@@H](COCc1ccccc1)OCc1ccc(C#Cc2ccc(CN3CCOCC3)cc2)cc1 [(R)-11a, (R)-3-(Benzyloxy)-N-hydroxy-2-[(4-{[4-(morpholinomethyl)phenyl]ethynyl}benzyl)oxy]propanamide] | 3620 ± 640 nM | > 32 µg/mL | 2 µg/mL (≈ 4 µM) | ≤6 mm | 15.7 ± 1.2 mm |  |  |  |
| O=C(NO)[C@@H](CNCc1ccccc1)OCc1ccc(C#Cc2ccc(CN3CCOCC3)cc2)cc1 [(R)-12a, (R)-3-(Benzylamino)-N-hydroxy-2-[(4-{[4-(morpholinomethyl)phenyl]ethynyl}benzyl)oxy]propanamide] | 5900 ± 2020 nM | 32 µg/mL (≈ 64 µM) | 4 µg/mL (≈ 8.01 µM) | 10.7 ± 1.2 mm | 20.0 ± 1.8 mm |  |  |  |
| O=C(NC[C@@H](OCc1ccc(C#Cc2ccc(CN3CCOCC3)cc2)cc1)C(=O)NO)c1ccccc1 [(R)-13a, (R)-N-{3-(Hydroxyamino)-2-[(4-{[4-(morpholinomethyl)phenyl]ethynyl}benzyl)oxy]-3-oxopropyl}benzamide] | 2560 ± 1080 nM |  | 4 µg/mL (≈ 7.79 µM) | 9.7 ± 0.6 mm | 18.0 ± 2.0 mm |  |  |  |
| O=C(NC[C@@H](OCc1ccc(C#Cc2ccc(CN3CCOCC3)cc2)cc1)C(=O)NO)c1ccc(-c2ccccc2)cc1 [(R)-13b] | > 2540 nM | > 16 µg/mL | > 16 µg/mL | ≤6 mm | ≤6 mm |  |  |  |
| O=C(NC[C@@H](OCc1ccc(C#Cc2ccc(CN3CCOCC3)cc2)cc1)C(=O)NO)c1cccc(-c2ccccc2)c1 [(R)-13c] | > 2540 nM | > 16 µg/mL | > 16 µg/mL | ≤6 mm | ≤6 mm |  |  |  |
| O=C(NC[C@@H](OCc1ccc(C#Cc2ccc(CN3CCOCC3)cc2)cc1)C(=O)NO)c1ccc(Oc2ccccc2)cc1 [(R)-13d] | > 2540 nM | > 16 µg/mL | > 16 µg/mL | ≤6 mm | ≤6 mm |  |  |  |
| O=C(NC[C@@H](OCc1ccc(C#Cc2ccc(CN3CCOCC3)cc2)cc1)C(=O)NO)c1ccc2ccccc2n1 [(R)-13e] | > 2540 nM | > 16 µg/mL | 8 µg/mL (≈ 14.2 µM) | ≤6 mm | 12.7 ± 1.6 mm |  |  |  |
| O=C(NC[C@@H](OCc1ccc(C#Cc2ccc(CN3CCOCC3)cc2)cc1)C(=O)NO)c1cnc2ccccc2c1 [(R)-13f] | > 2540 nM | > 16 µg/mL | > 16 µg/mL | ≤6 mm | 10.3 ± 1.2 mm |  |  |  |
| O=C(NC[C@@H](OCc1ccc(C#Cc2ccc(CN3CCOCC3)cc2)cc1)C(=O)NO)c1cc2ccccc2[nH]1 [(R)-13g] | > 2540 nM | > 16 µg/mL | 16 µg/mL (≈ 29 µM) | ≤6 mm | 9.0 ± 1.0 mm |  |  |  |
| O=C(NC[C@@H](OCc1ccc(C#Cc2ccc(CN3CCOCC3)cc2)cc1)C(=O)NO)c1ccc2[nH]ccc2c1 [(R)-13j] | 1150 ± 317 nM | > 16 µg/mL | 16 µg/mL (≈ 29 µM) | ≤6 mm | 11.7 ± 1.2 mm |  |  |  |
| O=C(NC[C@@H](OCc1ccc(C#Cc2ccc(CN3CCOCC3)cc2)cc1)C(=O)NO)c1cc(-c2ccccc2)[nH]n1 [(R)-13m] | > 2540 nM | > 16 µg/mL | > 16 µg/mL | ≤6 mm | 9.7 ± 1.3 mm |  |  |  |
| Cc1noc(C)c1C(=O)NC[C@@H](OCc1ccc(C#Cc2ccc(CN3CCOCC3)cc2)cc1)C(=O)NO [(R)-13n] | > 2540 nM | > 16 µg/mL | 8 µg/mL (≈ 15 µM) | ≤6 mm | 16.3 ± 1.6 mm | no inhibitory activity | < 10% |  |
| O=C(NO)[C@@H](CN(Cc1ccccc1)Cc1ccccc1)OCc1ccc(C#Cc2ccc(CN3CCOCC3)cc2)cc1 [(R)-37, (R)-3-(Dibenzylamino)-N-hydroxy-2-[(4-{[4-(morpholinomethyl)phenyl]ethynyl}benzyl)oxy]propanamide] | > 2540 nM | > 16 µg/mL | > 16 µg/mL | ≤6 mm | ≤6 mm |  |  |  |
| COc1ccc2[nH]ccc2c1 [F1] |  |  |  |  |  |  |  | yes |
